Square brackets hold non-standard residues; d marks the D form. Peptide text beside a SMILES is read from it. * marks the point of attachment. Nle = CCCC[C@H](N)C(=O)O; Cbz = O=C(OCc1ccccc1)*
Assays:
NOXA = assay: Western blot of NOXA after proteasome inhibitors in normal melanocytes; type: cell-based, human; details: 18 hrs
Text: A panel of melanoma cells were used to assess the effect of bortezomib on pro-apoptotic proteins. RJ002L, C8161, MUM2B and SK-MeI-28 melanoma cells, as well as two normal melanocyte cultures (MC-010 and MC-012) were examined. Prior to testing, the RJ002L melanoma cell lines were maintained in RPMI supplemented with 10% FBS. Late passage melanoma cell lines (C8161, MUM2B and SK-Me1028) were utilized as previously described (Welch D et al., 1991, Int J Cancer 47:227-237; Bittner M et al., 2000, Nature 406:536-540). Normal human melanocytes were isolated from neonatal foreskins and cultured as previously described (Qin J et al., 2004, Mol Cancer Ther 3:895-902). Proliferating cells were examined by Western blot analysis before and after 18 hrs of exposure to bortezomib (1 μM). Antibodies were obtained as follows: Bad (SC-8044), Bcl-2 (SC-7382), Bcl-xL (SC-634), Mcl-1 (SC-819), Bak (SC-832) from Santa Cruz Biotechnology (Santa Cruz, Calif.); NOXA (OP180) from Calbiochem; Bid, Bim and PUMA from Cell Signaling (Beverly, Mass.); BAX from Upstate (Charlottesville, Va.); and β-actin from ICN (Irvine, Calif.). For the Western blot analysis, whole cell extracts were prepared as previously described (Denning M et al., 1998, J Biol Chem 273:29995-30002). Briefly, cells were harvested by scraping monolayers and washed with PBS. Cell pellets were resuspended in CHAPS buffers containing a protease inhibitor cocktail. Extracts were vigorously shaken at 4° C. for 15 min followed by centrifugation. Supernatants were collected and protein concentration determined using Bio-Rad reagent. Thirty to 50 microgram protein samples were resolved by SDS-polyacrylamide gel electrophoresis and transferred to polyvinylidene difluoride membrane by electroblotting. Membranes were probed with the various primary antibodies overnight at 4° C., followed by detection using ECL reagents (Amersham Pharmacia Biotech, Piscataway, N.J.) according to manufacturer's instructions.
Two other proteasome inhibitors, lactasytsin and MG-132, were tested for the ability to induce NOXA in melanoma cells and melanocytes. […]

C8161 melanoma cells = assay: Proliferating versus serum-deprived C8161 melanoma cells, NOXA and apoptosis; type: cell-based, human; details: for NOXA induction: proliferating (10% FCS) or serum-deprived (no serum) C8161
Method: C8161 melanoma cells were induced into a relatively quiescent state by serum withdrawal. Proliferation assays were conducted in the presence or absence of 10% fetal calf serum (FCS) by manual counting of melanoma cells in triplicate wells on days 0, 1, 2 and 3. […] By phase contrast microscopy, the withdrawal of FCS arrested the cells (data not shown). This growth arrest was confirmed by Western blots of the cells that were maintained as either rapidly proliferating cells in the presence of 10% FCS or were growth arrested by serum withdrawal and washing with PBS for either 1 or 2 days. Whole cell extracts were prepared and Western blot analysis was performed as described above in Example 8 using antibodies to NOXA, p21 (SC-817, Santa Cruz Biotechnology, Santa Cruz, Calif.) and β-actin as described here and above.
Growth arrest induced by serum withdrawal was confirmed by induction of p21. […] Thus, not only can proteasome inhibitors selectively induce NOXA and kill melanoma cells and not kill melanocytes independent of p53, but melanoma cells are susceptible to killing even when maintained in a relatively quiescent state in vitro.

normal human melanocytes = assay: Apoptosis and cell cycle of normal human melanocytes treated with z-Leu-Leu-Nle-CHO; type: cell-based
Method: The effect of z-Leu-Leu-Nle-CHO on apoptosis was tested in vitro using normal human melanocytes and several melanoma cell cultures. Prior to testing, cutaneous (C8161, SK-MeI-28, SK-MeI-100, SK-MeI-5, C81-61), uveal or ocular (MUM2B, MUM2C, OCM-1A), and pulmonary metastases (RJ002L) melanoma cell lines were maintained in RPMI supplemented with 10% FBS. Normal human melanocytes were isolated from neonatal foreskins as previously described (Qin J et al., 2004, Mol Cancer Ther 3:895-902) and cultured with medium 154 containing growth supplements (Cascade Biologics, Portland, Oreg.).
To assess the effect of z-Leu-Leu-Nle-CHO on the cell lines, the cells were grown in suitable culture media. Highly proliferating cells (i.e., cells that had reached approximately 30% confluency) were exposed to z-Leu-Leu-Nle-CHO as described below. […]
Following treatment with z-Leu-Leu-Nle-CHO, the melanoma and melanocyte cell cultures were assayed for apoptotic cells using the APO TARGET Annexin V FITC staining kit (Biosource, Camarillo, Calif.) according to the manufacturer's instructions followed by flow cytometric analysis using FACScaliber (Becton Dickinson, Palo Alto, Calif.) as described in Qin, J. et al., 2001, Nat Med 7:385-386. In some cases, cell cycle and apoptosis analysis was measured using propidium iodide staining and flow cytometry as described. […]

Structure (SMILES) | NOXA induction (NOXA; MC-004, MC-005, MC-006, MC-008, 1 μM or 10 μM) | NOXA induction (C8161 melanoma cells) | NOXA induction (NOXA; MC-010, MC-012, 1 μM) | cell death by apoptosis in serum-deprived cells (C8161 melanoma cells; serum-deprived versus proliferating C8161) | cell cycle effect (normal human melanocytes; 10 μM for 24 h) | induction of apoptosis (normal human melanocytes; MC004, MC007, 1-10 μM for 18 h)
CC(C)C[C@@H](C=O)NC(=O)[C@H](CC(C)C)NC(=O)[C@H](CC(C)C)NC(=O)OCc1ccccc1 [MG-132, benzoxycarbonyl-Leucyl-Leucyl-Leucyl-aldehyde] (Cbz-Leu-Leu-Leu-aldehyde) | no induction of NOXA in any of the normal melanocytes | trigger prominent NOXA induction | – | – | – | –
CC(C)C[C@H](NC(=O)[C@H](Cc1ccccc1)NC(=O)c1cnccn1)B(O)O [bortezomib, N-(2-pyrazine)carbonyl-L-phenylalanine-L-leucine boronic acid] | – | trigger prominent NOXA induction | did not exhibit NOXA induction | comparable to that seen in bortezomib-treated proliferating melanoma cells | – | –
CCCC[C@@H](C=O)NC(=O)[C@H](CC(C)C)NC(=O)[C@H](CC(C)C)NC(=O)OCc1ccccc1 [z-Leu-Leu-Nle-CHO, N-benzyloxycarbonyl-leucyl-leucyl-norleucinal] (Cbz-Leu-Leu-[Nle]-aldehyde) | – | – | – | – | induce a G2/M growth arrest | did not significantly induce apoptosis
